Data taken from ChEMBL document CHEMBL1817646, “Chromomycin SA analogs from a marine-derived Streptomyces sp” (Bioorg Med Chem, 2011).

Legend:
[1] = Cytotoxicity against human HCC44 cells after 96 hrs by Cell Titer Glo assay; format: functional, cell-based; settings: HCC44, 96 h
A549 = assay: Cytotoxicity against human A549 cells after 96 hrs by Cell Titer Glo assay; format: functional, cell-based; settings: A549, 96 h
[2] = Ratio IC50 for compound to mithramycin IC50 for mouse 3T3 cells; format: cell-based; settings: NIH3T3 cells, read-out: Ratio IC50

| Structure (SMILES) | IC50 [1] | IC50 (A549) | selectivity ratio [2] |
| --- | --- | --- | --- |
| COC(=O)[C@@H](OC)[C@@H]1Cc2cc3cc(O[C@H]4C[C@@H](O[C@@H]5C[C@@H](O)[C@H](OC)[C@@H](C)O5)[C@H](OC(C)=O)[C@@H](C)O4)c(C)c(O)c3c(O)c2C(=O)[C@H]1O[C@H]1C[C@H](O[C@H]2C[C@H](O[C@H]3C[C@@](C)(O)[C@@H](OC(=O)C(C)C)[C@H](C)O3)[C@H](O)[C@@H](C)O2)[C@H](O)[C@@H](C)O1 | 56 nM | – | – |
| CO[C@H]1[C@H](O)C[C@@H](O[C@@H]2C[C@H](Oc3cc4cc5c(c(O)c4c(O)c3C)C(=O)[C@@H](O[C@H]3C[C@H](O[C@H]4C[C@H](O[C@H]6C[C@@](C)(O)[C@@H](OC(=O)C(C)C)[C@H](C)O6)[C@H](O)[C@@H](C)O4)[C@H](O)[C@@H](C)O3)[C@H]([C@H](OC)C(=O)O)C5)O[C@H](C)[C@H]2OC(C)=O)O[C@@H]1C [CHROMOMYCIN SA2] | 780 nM | 1500 nM | – |
| CO[C@H]1[C@H](O)C[C@@H](O[C@@H]2C[C@H](Oc3cc4cc5c(c(O)c4c(O)c3C)C(=O)[C@@H](O[C@H]3C[C@H](O[C@H]4C[C@H](O[C@H]6C[C@@](C)(O)[C@@H](OC(C)=O)[C@H](C)O6)[C@H](O)[C@@H](C)O4)[C@H](O)[C@@H](C)O3)[C@H]([C@H](OC)C(=O)O)C5)O[C@H](C)[C@H]2OC(C)=O)O[C@@H]1C [CHROMOMYCIN SA] | 210 nM | 560 nM | – |
| COC(=O)[C@@H](OC)[C@@H]1Cc2cc3cc(O[C@H]4C[C@@H](O[C@@H]5C[C@@H](O)[C@H](OC)[C@@H](C)O5)[C@H](OC(C)=O)[C@@H](C)O4)c(C)c(O)c3c(O)c2C(=O)[C@H]1O[C@H]1C[C@H](O[C@H]2C[C@H](O[C@H]3C[C@@](C)(O)[C@@H](O)[C@H](C)O3)[C@H](O)[C@@H](C)O2)[C@H](O)[C@@H](C)O1 | 3400 nM | – | – |
| CO[C@H]1[C@H](O)C[C@@H](O[C@@H]2C[C@H](Oc3cc4cc5c(c(O)c4c(O)c3C)C(=O)[C@@H](O[C@H]3C[C@H](O[C@H]4C[C@H](O[C@H]6C[C@@](C)(O)[C@@H](OC(=O)C(C)C)[C@H](C)O6)[C@H](O)[C@@H](C)O4)[C@H](O)[C@@H](C)O3)[C@H]([C@H](OC)C(=O)[C@@H](O)[C@@H](C)O)C5)O[C@H](C)[C@H]2OC(C)=O)O[C@@H]1C [CHROMOMYCIN A2] | 0.26 nM | 0.44 nM | – |
| CO[C@H]1[C@H](O)C[C@@H](O[C@@H]2C[C@H](Oc3cc4cc5c(c(O)c4c(O)c3C)C(=O)[C@@H](O[C@H]3C[C@H](O[C@H]4C[C@H](O[C@H]6C[C@@](C)(O)[C@@H](O)[C@H](C)O6)[C@H](O)[C@@H](C)O4)[C@H](O)[C@@H](C)O3)[C@H]([C@H](OC)C(=O)O)C5)O[C@H](C)[C@H]2OC(C)=O)O[C@@H]1C [CHROMOMYCIN SA3] | > 33300 nM | > 50000 nM | – |
| CO[C@H](C(=O)[C@@H](O)[C@@H](C)O)[C@@H]1Cc2cc3cc(O[C@H]4C[C@@H](O[C@H]5C[C@@H](O)[C@H](O)[C@@H](C)O5)[C@H](O)[C@@H](C)O4)c(C)c(O)c3c(O)c2C(=O)[C@H]1O[C@H]1C[C@@H](O[C@H]2C[C@@H](O[C@H]3C[C@](C)(O)[C@H](O)[C@@H](C)O3)[C@@H](O)[C@@H](C)O2)[C@H](O)[C@@H](C)O1 [PLICAMYCIN] | – | – | 1500 |
| CO[C@@H]1[C@H](O)C[C@@H](O[C@@H]2C[C@H](Oc3cc4cc5c(c(O)c4c(O)c3C)C(=O)[C@@H](O[C@H]3C[C@@H](O[C@H]4C[C@@H](O[C@H]6C[C@](C)(O)[C@@H](OC(C)=O)[C@H](C)O6)[C@H](O)[C@@H](C)O4)[C@H](O)[C@@H](C)O3)[C@H]([C@H](OC)C(=O)[C@@H](O)[C@@H](C)O)C5)O[C@H](C)[C@@H]2OC(C)=O)O[C@@H]1C [CHROMOMYCIN A3] | 1 nM | 42 nM | – |
| CO[C@H]1[C@H](O)C[C@@H](O[C@@H]2C[C@H](Oc3cc4cc5c(c(O)c4c(O)c3C)C(=O)[C@@H](O[C@H]3C[C@H](O[C@H]4C[C@H](O[C@H]6C[C@@](C)(O)[C@@H](O)[C@H](C)O6)[C@H](O)[C@@H](C)O4)[C@H](O)[C@@H](C)O3)[C@H]([C@H](OC)C(=O)[C@@H](O)[C@@H](C)O)C5)O[C@H](C)[C@H]2O)O[C@@H]1C | > 50000 nM | > 50000 nM | – |
| CO[C@H]1[C@H](O)C[C@@H](O[C@@H]2C[C@H](Oc3cc4cc5c(c(O)c4c(O)c3C)C(=O)[C@@H](O[C@H]3C[C@H](O[C@H]4C[C@H](O[C@H]6C[C@@](C)(O)[C@@H](O)[C@H](C)O6)[C@H](O)[C@@H](C)O4)[C@H](O)[C@@H](C)O3)[C@H]([C@H](OC)C(=O)[C@@H](O)[C@@H](C)O)C5)O[C@H](C)[C@H]2OC(C)=O)O[C@@H]1C [DEACETYL CHROMOMYCIN A3] | 670 nM | 1200 nM | – |
